The source of these data is patent publication US20230056205A1, “SUBSTITUTED 4,6-DIHYDROSPIRO[[1,2,3]TRIAZOLO[4,5-B]PYRIDINE-7,3'-INDOLINE]-2',5(3H)-DIONE ANALOGUES” (The Board of Regents of The University of Texas System, priority 2019, published 2023).

Bounds are passed on as bounds.

In one data set the test system is DENV-2 replicon. Put plainly: Luciferase reporter replicon-based screening, DENV-2. Particulars: Dengue virus, DENV2, Huh-7, 48 h, read-out: EC50 DENV-2, Huh7 cells stably expressing DENV-2 replicon, 48 h. Type of data set: cell-based, DENV-2 (New Guinea C strain, NGC). In short, it runs like this: (§1)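 Huh7 cells carrying Renilla luciferase/neo replicons of DENV-1 (WestPac), DENV-2 (NGC), DENV-3 (D3MY05-34640) or DENV-4 (D4MY01-22713), treated with 2-fold compound dilutions for 48 h at 37 °C in duplicate. Live-cell luciferase read; EC50 by four-parameter logistic fit.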

In the next data set the test system is DENV-4 replicon. In words: Luciferase reporter replicon-based screening, DENV-4. The data set is classed as cell-based, DENV-4 (strain D4MY01-22713). Conditions: Dengue virus, DENV4, Huh-7, 48 h, read-out: EC50 DENV-4. In short, it runs like this: as §1
The subject of another data set is DENV-3 replicon. Put plainly: Luciferase reporter replicon-based screening, DENV-3. Type of data set: cell-based, DENV-3 (strain D3MY05-34640). Particulars: Dengue virus, DENV3, Huh-7, 48 h, read-out: EC50 DENV-3, Huh7 cells stably expressing DENV-3 replicon, 48 h. In short, it runs like this: as §1
In the next data set the test system is DENV-1 replicon. Put plainly: Luciferase reporter replicon-based screening, DENV-1. The data set is classed as cell-based, DENV-1 (strain WestPac). Conditions: Dengue virus, DENV1, Huh-7, 48 h, read-out: EC50 DENV-1. In short, it runs like this:
as §1

Data set [1] can be described thus: Cytotoxicity assay (CellTiter-Glo). Particulars: human, Huh7 cells stably expressing DENV-2 replicon. The data set is classed as cell-based. In short, it runs like this:
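Huh7 or Huh7 replicon cells, seeded overnight at 37 °C, exposed to 2-fold serial dilutions of compound for 48 h in duplicate. Viability by CellTiter-Glo, normalised to 0.45% DMSO wells (100%); CC50 by four-parameter logistic regression.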

For `C[C@@H](c1ccc(Cl)cc1)n1nnc2c1NC(=O)C[C@]21C(=O)N(CCCBr)c2ccc(Cl)cc21` [Compound 47, (R)-1'-(3-Bromopropyl)-5'-chloro-3-((S)-1-(4-chlorophenyl)ethyl)-4,6-dihydrospiro[[1,2,3]triazolo[4,5-b]pyridine-7,3'-indoline]-2',5(3H)-dione], the EC50 in the data set on DENV-2 replicon turned out to be 250 nM; with DENV-4 replicon it was 3200 nM; with DENV-3 replicon, 76 nM; in the data set on DENV-1 replicon, 2400 nM. In data set [1], the CC50 at 48 h was over 10000 nM.

For the compound `C[C@@H](c1ccc(Cl)cc1)n1nnc2c1NC(=O)C[C@]21C(=O)N(CCN2CCOCC2)c2ccc(Cl)cc21` [Compound 55, (R)-5'-chloro-3-((S)-1-(4-chlorophenyl)ethyl)-1'-(2-morpholinoethyl)-4,6-dihydrospiro[[1,2,3]triazolo[4,5-b]pyridine-7,3'-indoline]-2',5(3H)-dione], the EC50 in the data set with DENV-2 replicon was 75 nM; with DENV-4 replicon, over 5000 nM; in the data set with DENV-3 replicon it was 17 nM; in the data set with DENV-1 replicon, over 5000 nM. The compound also displayed a CC50 at 48 h in data set [1] of over 10000 nM.

As for `C[C@@H](c1ccc(Cl)cc1)n1nnc2c1NC(=O)C[C@]21C(=O)N(CCN2CCCCC2)c2ccc(Cl)cc21` [Compound 56, (R)-5'-Chloro-3-((S)-1-(4-chlorophenyl)ethyl)-1'-(2-(piperidin-1-yl)ethyl)-4,6-dihydrospiro[[1,2,3]triazolo[4,5-b]pyridine-7,3'-indoline]-2',5(3H)-dione], the EC50 with DENV-2 replicon was 74 nM; with DENV-4 replicon, over 5000 nM; in the data set with DENV-3 replicon it was 5 nM; with DENV-1 replicon, over 5000 nM. Besides, the CC50 at 48 h in data set [1] was over 10000 nM.

Take `C[C@@H](c1ccc(Cl)cc1)n1nnc2c1NC(=O)C[C@]21C(=O)N(CCN(C)C)c2ccc(Cl)cc21` [Compound 57, (R)-5'-Chloro-3-((S)-1-(4-chlorophenyl)ethyl)-1'-(2-(dimethylamino)ethyl)-4,6-dihydrospiro[[1,2,3]triazolo[4,5-b]pyridine-7,3'-indoline]-2',5(3H)-dione]: the EC50 with DENV-2 replicon is 25 nM; in the data set on DENV-4 replicon, over 5000 nM; in the data set with DENV-3 replicon it was 2 nM; in the data set on DENV-1 replicon, over 5000 nM. For the same compound, the CC50 at 48 h in data set [1] was over 10000 nM.

On to `C[C@@H](c1ccc(Cl)cc1)n1nnc2c1NC(=O)C[C@]21C(=O)N(CCN2CCCC2)c2ccc(Cl)cc21` [Compound 58, (R)-5'-Chloro-3-((S)-1-(4-chlorophenyl)ethyl)-1'-(2-(pyrrolidin-1-yl)ethyl)-4,6-dihydrospiro[[1,2,3]triazolo[4,5-b]pyridine-7,3'-indoline]-2',5(3H)-dione], for which the EC50 in the data set with DENV-2 replicon was 38 nM; with DENV-4 replicon, over 5000 nM; in the data set with DENV-3 replicon, 6 nM; with DENV-1 replicon, over 5000 nM. The CC50 at 48 h in data set [1] is over 10000 nM.

On to `C[C@@H](c1ccc(Cl)cc1)n1nnc2c1NC(=O)C[C@]21C(=O)N(CCN2CCN(C)CC2)c2ccc(Cl)cc21` [Compound 59, (R)-5'-Chloro-3-((S)-1-(4-chlorophenyl)ethyl)-1'-(2-(4-methylpiperazin-1-yl)ethyl)-4,6-dihydrospiro[[1,2,3]triazolo[4,5-b]pyridine-7,3'-indoline]-2',5(3H)-dione], for which the EC50 with DENV-2 replicon is 300 nM; in the data set with DENV-4 replicon, over 5000 nM; with DENV-3 replicon it was 30 nM; in the data set on DENV-1 replicon it was over 5000 nM. Further, the CC50 at 48 h in data set [1] was over 10000 nM.

On to `C[C@@H](c1ccc(Cl)cc1)n1nnc2c1NC(=O)C[C@]21C(=O)N(CCN(C)CCS(C)(=O)=O)c2ccc(Cl)cc21` [Compound 60, (R)-5'-Chloro-3-((S)-1-(4-chlorophenyl)ethyl)-1'-(2-(methyl(2-(methylsulfonyl)ethyl)amino)ethyl)-4,6-dihydrospiro[[1,2,3]triazolo[4,5-b]pyridine-7,3'-indoline]-2',5(3H)-dione], for which the EC50 in the data set on DENV-2 replicon is 77 nM; with DENV-4 replicon, over 5000 nM; in the data set on DENV-3 replicon, 18 nM; with DENV-1 replicon, over 5000 nM. The compound further had a CC50 at 48 h in data set [1] of over 10000 nM.

Take `C[C@@H](c1ccc(Cl)cc1)n1nnc2c1NC(=O)C[C@]21C(=O)N(CCN2CCC2)c2ccc(Cl)cc21` [Compound 61, (R)-1'-(2-(Azetidin-1-yl)ethyl)-5'-chloro-3-((S)-1-(4-chlorophenyl)ethyl)-4,6-dihydrospiro[[1,2,3]triazolo[4,5-b]pyridine-7,3'-indoline]-2',5(3H)-dione]: the EC50 in the data set with DENV-2 replicon was 67 nM; with DENV-4 replicon, over 5000 nM; with DENV-3 replicon, 7 nM; with DENV-1 replicon, over 5000 nM. Besides, the CC50 at 48 h in data set [1] is over 10000 nM.

Take `CNCCN1C(=O)[C@]2(CC(=O)Nc3c2nnn3[C@@H](C)c2ccc(Cl)cc2)c2cc(Cl)ccc21` [Compound 62, (R)-5'-chloro-3-((S)-1-(4-chlorophenyl)ethyl)-1'-(2-(methylamino)ethyl)-4,6-dihydrospiro[[1,2,3]triazolo[4,5-b]pyridine-7,3'-indoline]-2',5(3H)-dione]: the EC50 in the data set with DENV-2 replicon is 120 nM; in the data set on DENV-4 replicon, over 5000 nM; in the data set on DENV-3 replicon, 22 nM; in the data set on DENV-1 replicon, over 5000 nM. Also, the CC50 at 48 h in data set [1] is over 10000 nM.

`C[C@@H](c1ccc(Cl)cc1)n1nnc2c1NC(=O)C[C@]21C(=O)N(CCCN2CCCCC2)c2ccc(Cl)cc21` [Compound 64, (R)-5'-Chloro-3-((S)-1-(4-chlorophenyl)ethyl)-1'-(3-(piperidin-1-yl)propyl)-4,6-dihydrospiro[[1,2,3]triazolo[4,5-b]pyridine-7,3'-indoline]-2',5(3H)-dione]: the EC50 in the data set with DENV-2 replicon is 130 nM; with DENV-4 replicon, over 5000 nM; in the data set on DENV-3 replicon it was 12 nM; with DENV-1 replicon it was over 5000 nM. The compound also yielded a CC50 at 48 h in data set [1] of over 10000 nM.

As to `C[C@@H](c1ccc(Cl)cc1)n1nnc2c1NC(=O)C[C@]21C(=O)N(CCCN2CCOCC2)c2ccc(Cl)cc21` [Compound 65, (R)-5'-Chloro-3-((S)-1-(4-chlorophenyl)ethyl)-1'-(3-morpholinopropyl)-4,6-dihydrospiro[[1,2,3]triazolo[4,5-b]pyridine-7,3'-indoline]-2',5(3H)-dione], the EC50 with DENV-2 replicon is 76 nM; with DENV-4 replicon, over 5000 nM; in the data set on DENV-3 replicon, 5 nM; in the data set with DENV-1 replicon, over 5000 nM. This compound also showed a CC50 at 48 h in data set [1] of over 10000 nM.

Take `C[C@@H](c1ccc(Cl)cc1)n1nnc2c1NC(=O)C[C@]21C(=O)N(CCCCN(C)C)c2ccc(Cl)cc21` [Compound 66, (R)-5'-Chloro-3-((S)-1-(4-chlorophenyl)ethyl)-1'-(4-(dimethylamino)butyl)-4,6-dihydrospiro[[1,2,3]triazolo[4,5-b]pyridine-7,3'-indoline]-2',5(3H)-dione]: the EC50 with DENV-2 replicon was 190 nM; in the data set on DENV-4 replicon it was over 5000 nM; in the data set with DENV-3 replicon it was 38 nM; with DENV-1 replicon it was over 5000 nM. Also, the CC50 at 48 h in data set [1] was over 10000 nM.

As to `C[C@@H](c1ccc(Cl)cc1)n1nnc2c1NC(=O)C[C@]21C(=O)N(CCCCN2CCCCC2)c2ccc(Cl)cc21` [Compound 67, (R)-5'-Chloro-3-((S)-1-(4-chlorophenyl)ethyl)-1'-(4-(piperidin-1-yl)butyl)-4,6-dihydrospiro[[1,2,3]triazolo[4,5-b]pyridine-7,3'-indoline]-2',5(3H)-dione], the EC50 is 350 nM with DENV-2 replicon, over 5000 nM in the data set on DENV-4 replicon, 78 nM with DENV-3 replicon and over 5000 nM with DENV-1 replicon. For the same compound, the CC50 at 48 h in data set [1] is over 10000 nM.

Regarding `C[C@@H](c1ccc(Cl)cc1)n1nnc2c1NC(=O)C[C@]21C(=O)N(CCCCCCN(C)C)c2ccc(Cl)cc21` [Compound 68, (R)-5'-Chloro-3-((S)-1-(4-chlorophenyl)ethyl)-1'-(6-(dimethylamino)hexyl)-4,6-dihydrospiro[[1,2,3]triazolo[4,5-b]pyridine-7,3'indoline]-2',5(3H)-dione], the EC50 in the data set on DENV-2 replicon is 900 nM; in the data set with DENV-4 replicon, over 5000 nM; in the data set on DENV-3 replicon, 66 nM; in the data set on DENV-1 replicon, 1500 nM. Also, the CC50 at 48 h in data set [1] is over 10000 nM.

In the case of `C[C@@H](c1ccc(Cl)cc1)n1nnc2c1NC(=O)C[C@]21C(=O)N(CCCCCCCCN(C)C)c2ccc(Cl)cc21` [Compound 69, (R)-5'-Chloro-3-((S)-1-(4-chlorophenyl)ethyl)-1'-(8-(dimethylamino)octyl)-4,6-dihydrospiro[[1,2,3]triazolo[4,5-b]pyridine-7,3'-indoline]-2',5(3H)-dione], the EC50 in the data set with DENV-2 replicon was 490 nM; with DENV-4 replicon, over 5000 nM; in the data set on DENV-3 replicon, 42 nM; in the data set on DENV-1 replicon, over 5000 nM. Besides, the CC50 at 48 h in data set [1] was over 10000 nM.

Take `C[C@@H](c1ccc(Cl)cc1)n1nnc2c1NC(=O)C[C@]21C(=O)N(CCCCCCCCCCN(C)C)c2ccc(Cl)cc21` [Compound 70, (R)-5'-Chloro-3-((S)-1-(4-chlorophenyl)ethyl)-1'-(10-(dimethylamino)decyl)-4,6-dihydrospiro[[1,2,3]triazolo[4,5-b]pyridine-7,3'indoline]-2',5(3H)-dione]: the EC50 in the data set on DENV-2 replicon was found to be 3500 nM; in the data set with DENV-4 replicon it was 3500 nM; with DENV-3 replicon it was 98 nM; with DENV-1 replicon, 2700 nM. The CC50 at 48 h in data set [1] was over 10000 nM.
